Source: patent US20250282746A1, “HALOGEN-SUBSTITUTED ISOINDOLINE COMPOUND AND USE THEREOF” (CHENGDU FENDI PHARMACEUTICAL CO., LTD., priority 2022, published 2025)

Experiments:
Type in all cases: cell-based
[1] = tested on: MOLM-13 cells; assay: Antiproliferative effect alone and in combination with azacitidine against MOLM-13 cells
Experimental: (§1) MOLM-13 cells in the logarithmic growth phase were diluted in a medium RPMI+[…], and NCI-H929 cells were diluted in a medium RPMI+10% FBS. The cells were plated at 4,000 cells/well in 96-well whole black plates (WHB) with 50 μL/well. After plating, the plates were incubated in an incubator at 5% CO2 and 37° C. for 24 h before the compounds were added. The compounds were prepared into a 10 mM stock solution in DMSO and diluted in a culture medium to the desired concentrations (a final DMSO concentration of 0.2%). 50 μL of the compound dilutions at final concentrations of 10,000, 3,333.33, 1,111.11, 370.37, 123.46, 41.15, 13.72, 4.57, 1.52, and 0 nM were added to the 96-well plates containing the cells, that is, each compound was serially diluted to 10 concentrations in duplicate. The plates were incubated at 5% CO2 and 37° C. for 72 h. When pharmaceutical partners were used, the concentrations of azacitidine and dexamethasone were kept at 200 nM and 500 nM respectively, and the compounds were serially three-fold diluted from 10,000 nM. After the incubation was complete, the plates were equilibrated at room temperature for 30 min. CellTiter-Glo® Reagent (Promega G7573) was added at 100 μL/well. The plates were shaken for 12 min on a microplate shaker. The luminescence value was measured at room temperature by the GloMax navigator (Promega GM2010). The IC50 values were calculated using the GraphPad Prism 7 software with the 0 nM control group as 0% inhibition.

[2] = tested on: NCI-H929 cells; assay: Antiproliferative effect alone and in combination with dexamethasone against NCI-H929 cells; settings: 72 h, read-out: IC50
Experimental: as §1

[3] = tested on: AML-2 cells; assay: Antiproliferative activity against various tumor cells: AML-2; settings: AML-2 cells, 72 h; read-out: Antiproliferative activity IC50 AML-2
Experimental: (§2) U937, NCI-H929, AML-2, and MOLM-13 cells in the logarithmic growth phase were diluted in media RPMI+10% FBS, RPMI+10% FBS, MEMα+20% FBS, RPMI+20% FBS, respectively, and plated at 4,000 cells/well in 96-well whole black plates (WHB) with 50 μL/well. After plating, the plates were incubated in an incubator at 5% CO2 and 37° C. for 24 h before the compounds were added. The compounds were prepared into a 10 mM stock solution in DMSO and diluted in a culture medium to the desired concentrations (a final DMSO concentration of 0.2%). […] The plates were incubated at 5% CO2 and 37° C. for 72 h. After the incubation was complete, the plates were equilibrated at room temperature for 30 min. CellTiter-Glo® Reagent (Promega G7573) was added at 100 μL/well. The plates were shaken for 12 min on a microplate shaker. The luminescence value was measured at room temperature by the GloMax navigator (Promega GM2010).

[4] = tested on: MOLM-13 cells; assay: Antiproliferative activity against various tumor cells: MOLM-13; settings: Homo sapiens; MOLM-13 cells, 72 h; read-out: Antiproliferative activity IC50 MOLM-13
Experimental: as §2

[5] = tested on: MV-4-11 cells; assay: Antiproliferative activity against MV-4-11 cells (CellTiter-Glo, 72 h); settings: Homo sapiens, MV4-11; MV-4-11 cells, 72 h; read-out: Antiproliferative activity IC50
Procedure, shortened: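 MV-4-11 cells in RPMI + 10% FBS plated at 5,000 cells/well and pre-incubated 24 h at 37 °C, 5% CO2. Compounds were then added (final DMSO 0.2%) and cells incubated 72 h. Viability was read by CellTiter-Glo luminescence after 30 min equilibration at room temperature.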

[6] = target: T1, GSPT1 protein (Homo sapiens, UniProt P15170); assay: Degradation of GSPT1 protein in NB-4 cells (Western blot); settings: NB-4 cells, compound 1 μM, 6 h; read-out: GSPT1 degradation
T1 construct: The whole cell lysate was prepared using a RIPA lysis buffer; endogenous in cells; host or cells: NB-4 cells
Procedure, shortened: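 NB-4 cells treated with compounds at 1 μM for 6 h at 37 °C, 5% CO2, with DMSO control. RIPA whole-cell lysates, BCA-normalized, were run on 4-20% SDS-PAGE and immunoblotted for GSPT1 protein.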

[7] = tested on: U937 cells; assay: Antiproliferative activity against various tumor cells: U937; settings: Homo sapiens, U-937; U937 cells, 72 h; read-out: Antiproliferative activity IC50 U937
Experimental: as §2

[8] = tested on: NCI-H929 cells; assay: Antiproliferative activity against various tumor cells: NCI-H929; settings: Homo sapiens; NCI-H929 cells, 72 h; read-out: Antiproliferative activity IC50 NCI-H929
Experimental: as §2

[9] = target: T2, CK1α (Homo sapiens, UniProt P48729); assay: Degradation of CK1α protein in HL-60 cells (Western blot); settings: 4 h
T2 construct: The whole cell lysate was prepared using a RIPA lysis buffer; endogenous in cells; host or cells: HL-60 cells
Experimental: (§3) […] of DMSO and the compounds were added, and the mixture was incubated in an incubator at 5% CO2 and 37° C. for 4 h. The cells were centrifuged, and the culture medium was discarded. PBS was added for washing and then discarded. The whole cell lysate was prepared using a RIPA lysis buffer containing a protease inhibitor cocktail and a phosphatase inhibitor, and incubated on ice for 30 min. The mixture was centrifuged, and the cell debris was discarded. The whole cell lysate supernatant was collected and transferred to a fresh EP tube. Samples were prepared using a loading buffer after a BCA protein assay. The samples were incubated in a metal bath at 100° C. for 10 min. The samples were electrophoretically separated from proteins on a 4-20% precast gel (SDS-PAGE gel), transferred to a PVDF membrane, blocked with 5% NFDM/TBST for 1 h at room temperature, co-incubated overnight at 4° C. with the primary antibody, and co-incubated for 2 h at room temperature with the secondary antibody on the next day. The signals were detected on the […]™ imaging system.

[10] = target: T3, c-Myc (Homo sapiens, UniProt P01106); assay: Degradation of c-MYC protein in HL-60 cells (Western blot); settings: 4 h
T3 construct: The whole cell lysate was prepared using a RIPA lysis buffer; endogenous in cells; host or cells: HL-60 cells
Experimental: as §3

[11] = in combination with 500 nM dexamethasone

T1 sequence (P15170 whole entry): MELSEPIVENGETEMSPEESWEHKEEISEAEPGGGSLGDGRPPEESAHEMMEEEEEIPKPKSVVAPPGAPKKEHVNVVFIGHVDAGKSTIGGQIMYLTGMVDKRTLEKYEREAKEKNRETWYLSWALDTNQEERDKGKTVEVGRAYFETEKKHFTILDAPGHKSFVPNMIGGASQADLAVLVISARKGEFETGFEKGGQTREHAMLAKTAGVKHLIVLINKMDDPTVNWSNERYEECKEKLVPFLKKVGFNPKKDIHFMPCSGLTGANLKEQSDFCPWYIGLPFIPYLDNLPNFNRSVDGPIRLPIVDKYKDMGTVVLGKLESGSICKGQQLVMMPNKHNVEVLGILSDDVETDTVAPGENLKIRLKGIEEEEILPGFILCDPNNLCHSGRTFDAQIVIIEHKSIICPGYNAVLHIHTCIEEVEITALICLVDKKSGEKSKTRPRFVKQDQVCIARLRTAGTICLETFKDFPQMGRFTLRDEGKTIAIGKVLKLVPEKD
T2 sequence (P48729 whole entry): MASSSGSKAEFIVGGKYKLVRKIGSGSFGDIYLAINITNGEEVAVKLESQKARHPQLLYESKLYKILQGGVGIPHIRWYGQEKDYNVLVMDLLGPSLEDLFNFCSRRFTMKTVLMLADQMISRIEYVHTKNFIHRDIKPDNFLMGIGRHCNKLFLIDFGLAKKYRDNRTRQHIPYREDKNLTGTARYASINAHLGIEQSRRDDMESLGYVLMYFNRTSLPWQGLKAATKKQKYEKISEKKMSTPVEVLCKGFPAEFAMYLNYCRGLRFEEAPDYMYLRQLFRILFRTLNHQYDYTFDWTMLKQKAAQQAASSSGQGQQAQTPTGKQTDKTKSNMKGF
T3 sequence (P01106 whole entry): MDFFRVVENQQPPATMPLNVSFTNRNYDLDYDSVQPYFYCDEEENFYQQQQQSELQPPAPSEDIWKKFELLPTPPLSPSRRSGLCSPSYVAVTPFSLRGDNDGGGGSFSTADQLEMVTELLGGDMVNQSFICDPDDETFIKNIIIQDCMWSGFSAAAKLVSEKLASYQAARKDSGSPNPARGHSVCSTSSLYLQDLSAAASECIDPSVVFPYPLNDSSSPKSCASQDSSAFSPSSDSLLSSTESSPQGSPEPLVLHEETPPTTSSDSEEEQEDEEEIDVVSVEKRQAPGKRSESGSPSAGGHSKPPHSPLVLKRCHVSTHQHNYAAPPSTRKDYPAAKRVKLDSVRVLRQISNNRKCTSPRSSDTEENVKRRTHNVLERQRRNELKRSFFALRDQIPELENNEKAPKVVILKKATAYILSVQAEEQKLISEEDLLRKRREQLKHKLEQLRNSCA

Compound	IC50 [3]	IC50 [4]	IC50 [5]	inhibition at 1 µM [6]	IC50 [7]	IC50 [8]	further results
Nc1ncn([C@@H]2O[C@H](CO)[C@@H](O)[C@H]2O)c(=O)n1 [Azacitidine, reference compound]	–	–	–	–	–	–	antiproliferative activity against MOLM-13 cells at fixed concentration ([1]; 200 nM): no significant antiproliferative activity; IC50 ([1]; Homo sapiens, MOLM-13 cells, 72 h, compound alone): 751 nM
C[C@@H]1C[C@H]2[C@@H]3CCC4=CC(=O)C=C[C@]4(C)[C@@]3(F)[C@@H](O)C[C@]2(C)[C@@]1(O)C(=O)CO [Dexamethasone]	–	–	–	–	–	–	IC50 ([2]; Homo sapiens, compound alone): > 10000 nM
O=C1CCC(N2Cc3c(ccc(CNC(=O)c4cc5cc(Cl)ccc5o4)c3Cl)C2=O)C(=O)N1 (stereo not drawn) [FDAB-68]	10 to 100 nM	10 to 100 nM	1 to 10 nM	50 to 80%	10 to 100 nM	1 to 10 nM	–
Cc1cc(C(=O)NCc2ccc3c(c2F)CN(C2CCC(=O)NC2=O)C3=O)cc(C)c1C (stereo not drawn) [FDAB-92]	1 to 10 nM	1 to 10 nM	1 to 10 nM	> 80%	1 to 10 nM	10 to 100 nM	–
CC(C)(C)c1ccc(C(=O)NCc2ccc3c(c2F)CN(C2CCC(=O)NC2=O)C3=O)cc1 (stereo not drawn) [FDAB-94]	< 1 nM	< 1 nM	< 1 nM	> 80%	< 1 nM	1 to 10 nM	–
O=C1CCC(N2Cc3c(ccc(CNC(=O)c4ccc(C(=O)c5ccccc5)cc4)c3F)C2=O)C(=O)N1 (stereo not drawn) [FDAB-100]	1 to 10 nM	< 1 nM	< 1 nM	> 80%	< 1 nM	< 1 nM	–
O=C1CCC(N2Cc3c(ccc(CNC(=O)C(F)(F)c4ccc(Cl)cc4)c3F)C2=O)C(=O)N1 (stereo not drawn) [FDAB-124]	10 to 100 nM	10 to 100 nM	10 to 100 nM	> 80%	10 to 100 nM	100 to 1000 nM	–
O=C(CCc1cccc(F)c1)NCc1ccc2c(c1F)CN(C1CCC(=O)NC1=O)C2=O (stereo not drawn) [FDAB-137]	1 to 10 nM	1 to 10 nM	1 to 10 nM	> 80%	1 to 10 nM	1 to 10 nM	–
O=C(/C=C/c1ccc(Cl)cc1)NCc1ccc2c(c1F)CN(C1CCC(=O)NC1=O)C2=O (stereo not drawn) [FDAB-142]	1 to 10 nM	< 1 nM	< 1 nM	> 80%	1 to 10 nM	< 1 nM	–
O=C(C#Cc1ccccc1)NCc1ccc2c(c1F)CN(C1CCC(=O)NC1=O)C2=O (stereo not drawn) [FDAB-144]	1 to 10 nM	< 1 nM	< 1 nM	> 80%	1 to 10 nM	< 1 nM	–
O=C(C#Cc1ccc(-c2ccccc2)cc1)NCc1ccc2c(c1F)CN(C1CCC(=O)NC1=O)C2=O (stereo not drawn) [FDAB-147]	< 1 nM	< 1 nM	< 1 nM	> 80%	< 1 nM	< 1 nM	–
O=C1CCC(N2Cc3c(ccc(CNC(=O)C4CC5(CCC5)C4)c3F)C2=O)C(=O)N1 (stereo not drawn) [FDAB-156]	10 to 100 nM	10 to 100 nM	1 to 10 nM	> 80%	1 to 10 nM	1 to 10 nM	–
CCCCCCCCCCCCSC(=S)SC(C)(C#N)CCC(=O)NCc1ccc2c(c1F)CN(C1CCC(=O)NC1=O)C2=O (stereo not drawn) [FDAB-164]	–	–	< 1 nM	> 80%	–	–	CK1α degradation ([9]; 10 nM): D (D denotes a percentage of degradation less than 25%); CK1α degradation ([9]; 100 nM): C (C denotes a percentage of degradation less than 500% but not less than 250%); CK1α degradation ([9]; 1000 nM): C (C denotes a percentage of degradation less than 500% but not less than 250%); c-Myc degradation ([10]; 10 nM): D (D denotes a percentage of degradation less than 25%); c-Myc degradation ([10]; 100 nM): C (C denotes a percentage of degradation less than 500% but not less than 250%); c-Myc degradation ([10]; 1000 nM): C (C denotes a percentage of degradation less than 500% but not less than 250%)
Nc1cccc2c1CN(C1CCC(=O)NC1=O)C2=O (stereo not drawn) [Lenalidomide]	–	–	–	–	–	–	IC50 [2, 11]: 774 nM; IC50 ([2]; Homo sapiens, compound alone): 2180 nM
Nc1cccc2c1C(=O)N(C1CCC(=O)NC1=O)C2=O (stereo not drawn) [Pomalidomide]	–	–	–	–	–	–	IC50 [2, 11]: 22.2 nM; IC50 ([2]; Homo sapiens, compound alone): 243 nM
